Results: patent publication EP4572800B1, “TETRAZINES WITH IMPROVED PROPERTIES” (Tagworks Pharmaceuticals B.V., priority 2023, dated 2024)

Legend:
[1] = target: acetyl cholinesterase (ACES) (Homo sapiens, UniProt P22303); assay: Enzyme inhibition study, ACES; type: biochemical, humans; details: for % ACES inhibition: final concentration of tetrazine 10 µM, human ACES
Protocol: (§1) In this Example, the inhibition of several physiologically relevant target proteins (viz. enzymes and a transporter) by tetrazines were tested in vitro. The enzymes tested were cyclooxygenase (COX-1), acetyl cholinesterase (ACES), and monoamine oxidase (MAO-B), and the tested transporter was calcium channel L-type, dihydropyridine. COX-1, ACES, and MAO-B from humans was used, while calcium channel L-type, dihydropyridine from rats was used. Standard literature protocols were used, and relevant controls were included to ensure the validity of the results. The target proteins were mixed with tetrazine 2.1 (reference), 2.4, 2.5, 2.7, or 2.10 (final concentration of tetrazine 10 µM) in appropriate buffers. The final concentrations for the respective target proteins depended on the standard protocol used, but for each individual target protein this concentration was the same for the different tetrazines tested. After an appropriate incubation time at an appropriate temperature, the enzymatic activity of the enzyme or the ligand binding in case of the transporter was tested in accordance with standard procedures from literature. From this remaining enzymatic activity or ligand binding, the percentage of inhibition was determined.

[2] = system: calcium channel L-type, dihydropyridine; assay: Transporter ligand binding inhibition, calcium channel L-type; parameters: species or system rats; details: for % Calcium channel L-type dihydropyridine inhibition: final concentration of tetrazine 10 µM, rat, ligand binding
Protocol: as §1

[3] = system: Swiss albino mice; assay: Maximum tolerated dose (MTD) study in mice, single intravenous dose; type: in vivo; details: 72 hours
Protocol: (§2) In this Example, groups of Swiss albino mice (an equal number of male and female animals) were subjected to a single dose of tetrazine 2.1 (reference), 2.4, 2.5, 2.7, or 2.10. Different groups were used for different doses. […] Control groups were also used, wherein mice were only administered vehicle (phosphate-buffered saline (PBS) pH 7.4) without tetrazine ("vehicle control").
(§3) Mice were treated in line with ethical guidelines. […] Environmental controls for the animal room were set to maintain a temperature of 22 to 25°C, humidity of 30-70% RH, and a 12-h light/12-h dark cycle.
(§4) The dose formulations were prepared as follows. Tetrazine 2.1 (reference), 2.4, 2.5, 2.7, or 2.10 was dissolved in PBS pH 7.4 to prepare separate stock solutions of each tetrazine. […] Further dilutions of the tetrazine stock solutions were done with PBS pH 7.4 to achieve a desired concentration.
(§5) Mice were dosed on day 1 by intravenously administering the dose formulation (expressed in µmol of tetrazine per kg body weight of the mouse). Thereafter, the mice were observed up to 72 hours post-dose for any signs of mortality. The number of dead mice after 72 hours ("mortality") was then divided by the original number of mice.

[4] = target: cyclooxygenase (COX-1) (Homo sapiens, UniProt P23219); assay: Enzyme inhibition study, COX-1; type: biochemical, humans; details: for % COX-1 inhibition: final concentration of tetrazine 10 µM, human COX-1
Sequence of cyclooxygenase (COX-1) (P23219 24-599): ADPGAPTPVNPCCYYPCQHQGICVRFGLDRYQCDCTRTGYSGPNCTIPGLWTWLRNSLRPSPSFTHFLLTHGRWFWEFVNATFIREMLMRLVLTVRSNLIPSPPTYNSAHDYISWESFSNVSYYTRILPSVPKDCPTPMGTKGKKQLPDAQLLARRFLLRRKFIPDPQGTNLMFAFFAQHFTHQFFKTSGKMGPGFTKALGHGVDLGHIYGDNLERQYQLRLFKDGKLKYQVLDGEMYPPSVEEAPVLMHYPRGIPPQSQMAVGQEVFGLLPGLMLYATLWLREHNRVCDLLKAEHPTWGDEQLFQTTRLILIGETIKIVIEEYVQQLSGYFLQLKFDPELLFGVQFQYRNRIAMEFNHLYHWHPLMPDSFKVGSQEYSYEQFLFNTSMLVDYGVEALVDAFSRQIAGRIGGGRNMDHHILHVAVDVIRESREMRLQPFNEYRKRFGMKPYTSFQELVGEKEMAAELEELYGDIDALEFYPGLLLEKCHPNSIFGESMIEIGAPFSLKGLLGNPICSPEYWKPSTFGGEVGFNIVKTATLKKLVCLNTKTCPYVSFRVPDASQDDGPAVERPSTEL
Protocol: as §1

[5] = target: T1, monoamine oxidase (MAO-B) (Homo sapiens, UniProt P27338); assay: Enzyme inhibition study, MAO-B; type: biochemical, humans; details: for % MAO-B inhibition: final concentration of tetrazine 10 µM, human MAO-B
T1 sequence (P27338 1-520): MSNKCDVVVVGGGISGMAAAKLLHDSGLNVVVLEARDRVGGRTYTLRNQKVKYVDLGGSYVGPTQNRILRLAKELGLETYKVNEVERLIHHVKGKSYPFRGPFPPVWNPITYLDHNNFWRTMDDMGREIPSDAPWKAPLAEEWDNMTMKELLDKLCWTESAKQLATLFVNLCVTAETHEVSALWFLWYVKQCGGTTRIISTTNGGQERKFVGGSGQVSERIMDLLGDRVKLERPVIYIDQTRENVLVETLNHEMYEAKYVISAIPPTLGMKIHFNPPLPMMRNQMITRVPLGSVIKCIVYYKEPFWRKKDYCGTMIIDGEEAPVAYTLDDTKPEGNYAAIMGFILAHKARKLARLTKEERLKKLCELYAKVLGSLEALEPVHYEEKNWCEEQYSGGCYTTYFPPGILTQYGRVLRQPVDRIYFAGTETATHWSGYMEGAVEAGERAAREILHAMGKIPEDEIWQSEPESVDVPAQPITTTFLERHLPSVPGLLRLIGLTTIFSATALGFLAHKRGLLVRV
Protocol: as §1

[6] = Maximum tolerated dose (MTD) study in mice, single intravenous dose; type: in vivo; details: both sexes, Swiss albino, mouse, in vivo, iv, mice, single intravenous dose, observed up to 72 hours post-dose
Protocol: as §2, §3, §4, §5

Sequence of acetyl cholinesterase (ACES) (P22303 32-614): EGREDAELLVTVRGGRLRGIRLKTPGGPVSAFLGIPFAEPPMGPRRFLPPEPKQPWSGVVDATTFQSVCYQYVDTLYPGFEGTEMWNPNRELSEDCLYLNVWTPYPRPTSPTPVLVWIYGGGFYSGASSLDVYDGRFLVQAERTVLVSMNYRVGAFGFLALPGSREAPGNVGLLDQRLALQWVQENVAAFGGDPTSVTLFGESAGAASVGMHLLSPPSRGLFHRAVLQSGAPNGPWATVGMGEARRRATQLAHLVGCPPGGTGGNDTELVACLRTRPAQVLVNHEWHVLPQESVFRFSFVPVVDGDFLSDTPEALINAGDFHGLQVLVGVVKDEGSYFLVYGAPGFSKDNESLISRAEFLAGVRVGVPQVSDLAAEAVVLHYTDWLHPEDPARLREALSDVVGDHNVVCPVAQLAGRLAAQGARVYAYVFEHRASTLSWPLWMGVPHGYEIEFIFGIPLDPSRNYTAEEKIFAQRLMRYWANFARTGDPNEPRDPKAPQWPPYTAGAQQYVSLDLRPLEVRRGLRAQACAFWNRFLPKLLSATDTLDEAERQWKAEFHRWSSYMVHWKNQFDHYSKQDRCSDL

Row | Structure (SMILES) | % ACES inhibition [1] | % Calcium channel L-type dihydropyridine inhibition [2] | % COX-1 inhibition [4] | % MAO-B inhibition [5] | MTD at 72 h [6] | further results
1 | O=C(O)CCOCCOCCOCCC(=O)Nc1ccc(-c2nnc(-c3ccccn3)nn2)nc1 [2.7, 3-(2-(2-(3-Oxo-3-((6-(6-(pyridin-2-yl)-1,2,4,5-tetrazin-3-yl)pyridin-3-yl)amino)propoxy)ethoxy)ethoxy)propanoic acid] | 22% | -17% | 37% | 38% | – | No. of mortality vs. total no. of mice ([3]; 103 µmol/kg i.v. single dose): 0 out of 6; No. of mortality vs. total no. of mice ([3]; 207 µmol/kg i.v. single dose): 0 out of 6; No. of mortality vs. total no. of mice ([3]; 621 µmol/kg i.v. single dose): 0 out of 6
2 | O=C(O)CN(CCN(CC(=O)O)CC(=O)Nc1ccc(-c2nnc(-c3ccccn3)nn2)nc1)CC(=O)O [2.4, 2,2'-((2-((Carboxymethyl)(2-oxo-2-((6-(6-(pyridin-2-yl)-1,2,4,5-tetrazin-3-yl)pyridin-3-yl)amino)ethyl)amino)ethyl)azanediyl)diacetic acid] | 11% | 10% | 53% | 20% | ≥ 57 µmol/kg | No. of mortality vs. total no. of mice ([3]; 19 µmol/kg i.v. single dose): 0 out of 6; No. of mortality vs. total no. of mice ([3]; 57 µmol/kg i.v. single dose): 0 out of 6; No. of mortality vs. total no. of mice ([3]; 95 µmol/kg i.v. single dose): 4 out of 4
3 | O=C(O)CN1CCN(CC(=O)O)CCN(CC(=O)NCCOCCOCCOCCOCCOCCOCCOCCOCCOCCOCCOCCNC(=O)CCCC(=O)Nc2ccc(-c3nnc(-c4ccccn4)nn3)nc2)CCN(CC(=O)O)CC1 [compound 2.1, 2,2',2''-(10-(2,40,44-Trioxo-44-((6-(6-(pyridine-2-yl)-1,2,4,5-tetrazin-3-yl)pyridine-3-yl)amino)-6,9,12,15,18,21,24,27,30,33,36-undecaoxa-3,39-diazatetratetracontyl)-1,4,7,10-tetraazacyclododecane-1,4,7-triyl)triacetic acid, reference compound] | 44% | 44% | 59% | 36% | ~39 µmol/kg | inhibition of acetyl cholinesterase (ACES), in words ([1]; statement in description): strongly inhibits; inhibition of calcium channel L-type, dihydropyridine, in words ([2]; statement in description): strongly inhibits; No. of mortality vs. total no. of mice ([3]; 8 µmol/kg i.v. single dose): 0 out of 6; No. of mortality vs. total no. of mice ([3]; 39 µmol/kg i.v. single dose): 0 out of 6; No. of mortality vs. total no. of mice ([3]; 78 µmol/kg i.v. single dose): 4 out of 6; inhibition of cyclooxygenase (COX-1), in words ([4]; statement in description): strongly inhibits; inhibition of monoamine oxidase (MAO-B), in words ([5]; statement in description): strongly inhibits
4 | O=C([O-])CN(CCN(CC(=O)[O-])CC(=O)Nc1ccc(-c2nnc(-c3ccccn3)nn2)nc1)CC(=O)[O-].[Ca+2].[Na+] [2.5, Calcium sodium 2-({2-[bis(carboxylatomethyl)amino]ethyl)[({6-[6-(pyridin-2-yl)-1,2,4,5-tetrazin-3-yl]pyridin-3-yl}carbamoyl)methyl]amino)acetate] | -1% | 1% | 18% | 9% | – | No. of mortality vs. total no. of mice ([3]; 85 µmol/kg i.v. single dose): 0 out of 6; No. of mortality vs. total no. of mice ([3]; 171 µmol/kg i.v. single dose): 0 out of 6; No. of mortality vs. total no. of mice ([3]; 512 µmol/kg i.v. single dose): 0 out of 6
5 | O=C(O)CN(CC(=O)O)CC(=O)Nc1ccc(-c2nnc(-c3ccccn3)nn2)nc1 [2.10, 2,2'-((2-Oxo-2-((6-(6-(pyridin-2-yl)-1,2,4,5-tetrazin-3-yl)pyridin-3-yl)amino)ethyl)azanediyl)diacetic acid] | 5% | -3% | 14% | 22% | – | No. of mortality vs. total no. of mice ([3]; 118 µmol/kg i.v. single dose): 0 out of 6; No. of mortality vs. total no. of mice ([3]; 177 µmol/kg i.v. single dose): 0 out of 6; No. of mortality vs. total no. of mice ([3]; 236 µmol/kg i.v. single dose): 0 out of 6
